Measurements as given in patent US12281060B2, “Remodilins for airway remodeling and organ fibrosis” (The University of Chicago, priority 2019, dated 2025).
“Also recorded” adds a separate entry of the source. Values belong to the compound of their own block, whether it stands above or below them.

What was measured:
[1] = tested on: serum response factor (SRF); test: Luciferase reporter assay of TGFβ-stimulated SRF activation; type: cell-based, human
From the text: FIGS. 6A-6B. Remodilins inhibit myofibroblast transformation. Remodilin 4 inhibits TGFβ-stimulated serum response factor (SRF) activation (FIG. 6B) but not Smad signaling (FIG. 6A), as determined using luciferase reporter assays.
It is well-established that myofibroblast transformation (MFT) is a critical step in the development of pulmonafy fibrisos. […] Maintenance of Smad signaling can preserve other beneficial effects of TGFβ. As depicted in FIG. 7, four remodilins inhibited smooth muscle ACTA2 and fibronectin-1 (FN1) protein expression (markers of MFT) in dose-dependent fashion.

[2] = Plasma pharmacokinetics and tissue distribution (liver, lung, thyroid) after single oral doses; type: in vivo; conditions: after oral administration, 10 or 50 mg/kg; male C57Bl/6 mice
Procedure: Studies were performed to characterize plasma pharmacokinetics (PK) and tissue distribution (liver, lung, thyroid) of 5 potential lead candidates in male C57Bl/6 mice receiving single oral doses of 10 mg/kg or 50 mg/kg.

[3] = tested on: HDM-treated Balb/c mice; test: HDM-induced airway constrictor hyperresponsiveness, methacholine challenge; type: in vivo; conditions: 12.5 mg/kg BID IP; HDM model, female Balb/c mice; vs 20% Solutol vehicle
Procedure: (§1) FIGS. 4A-4B. Effect of remodilin treatment (remodilin 83, 12.5 mg/kg BID IP) on airway constrictor hyperresponsiveness and remodeling induced by house dust mite (HDM) exposure in female Balb/c mice. FIG. 4A Airway constrictor hyperresponsiveness methacholine dose-response curves for mice treated with remodilin 83 or 20% Solutol (vehicle).
A mouse model of acute allergic asthma was used in which mice were sensitized with house dust mite (HDM) extracts. […] As depicted in FIGS. 1A and 1B, male and female Balb/c mice treated with HDM were subjected to methacholine challenge. […] The area under the curve increased by at least 3.6-fold in each sex.
(§2) As depicted in FIG. 4A, twice-daily intraperitoneal administration of remodilins (12.5 mg/kg) was evaluated.

[4] = tested on: HDM-treated Balb/c mice; test: HDM-induced airway remodeling, MYH11 immunostain-positive airway smooth muscle area; type: in vivo; conditions: 12.5 mg/kg BID IP, HDM model, female Balb/c mice, large airways, vs 20% Solutol vehicle
Procedure: as §1
Furthermore, three-way analysis of variance (Ctrl vs HDM, Female vs Male, Small vs Large Airways) confirmed that the HDM influence on airway remodeling was significant at P=0.0007.
as §2

[5] = tested on: bleomycin-treated mice; test: Bleomycin-induced lung fibrosis in mice; type: in vivo; conditions: 25 mg/kg QD IP
Procedure: FIGS. 8A-8B. Treatment with remodilin 83 (25 mg/kg QD IP) reduced pulmonary fibrosis in bleomycin-treated mice. Remodilin or vehicle (DMSO) was given on days 7-21 after i.t. bleomycin (1 U/kg). Both lung hydroxyproline (FIG. 8A) and collagen levels (FIG. 8B) were lower in remodilin 83-treated mice than in control mice.
Both lung hydroxyproline (FIG. 8A) and collagen levels (FIG. 8B) were lower in remodilin 83-treated mice (systemically-administered) than in control mice.

[6] = days 7-21 after i.t. bleomycin, vs control mice

Compound: COc1ccc(C(=O)Nc2ccc(S(=O)(=O)N3CCNCC3)cc2)cc1I [remodilin 61, 3-Iodo-4-methoxy-N-(4-(piperazin-1-ylsulfonyl)phenyl)benzamide]
accumulation in lung vs. other tissues (liver, thyroid) or plasma [2]: higher concentrations in lung; also recorded: selective accumulation

Compound: CC1CN(S(=O)(=O)c2ccc(NC(=O)c3ccc(Br)c(I)c3)cc2)CCN1 (stereo not drawn) [remodilin 83, 4-Bromo-3-iodo-N-(4-((3-methylpiperazin-1-yl)sulfonyl)phenyl)benzamide]
accumulation in lung vs. other tissues (liver, thyroid) or plasma [2]: higher concentrations in lung; also recorded: selective accumulation
development of airway constrictor hyperresponsiveness [3]: significantly blunted
MYH11 immunostain-positive airway smooth muscle area normalized to epithelial length [4]: significantly lower
MYH11 immunostain-positive airway smooth muscle area normalized to epithelial length ([4]; listed as Remodilin 83): significantly lowered
pulmonary fibrosis (bleomycin-induced) ([5]; days 7-21 after i.t. bleomycin 1 U/kg, vs DMSO vehicle): inhibitory activity; also recorded: reduced
lung collagen levels [5, 6]: lower
lung hydroxyproline [5, 6]: lower

Compound: CC1CNCCN1S(=O)(=O)c1ccc(NC(=O)c2ccc(Br)c(I)c2)cc1 (stereo not drawn) [remodilin 86, 4-Bromo-3-iodo-N-(4-((2-methylpiperazin-1-yl)sulfonyl)phenyl)benzamide]
accumulation in lung vs. other tissues (liver, thyroid) or plasma [2]: higher concentrations in lung; also recorded: selective accumulation

The next lines start with the values.

TGFβ-stimulated serum response factor (SRF) activation [1]: inhibits
Compound: CCN(CC)S(=O)(=O)c1ccc(NC(=O)c2ccc(OC)c(I)c2)cc1 [remodilin 4, N-(4-(N,N-diethylsulfamoyl)phenyl)-3-iodo-4-methoxybenzamide]

accumulation in lung vs. other tissues (liver, thyroid) or plasma [2]: selective accumulation
Compound: COc1ccc(C(=O)Nc2ccc(S(=O)(=O)N3CCCCC3C)cc2)cc1I (stereo not drawn) [remodilin 39, 3-Iodo-4-methoxy-N-(4-((2-methylpiperidin-1-yl)sulfonyl)phenyl) benzamide]

accumulation in lung vs. other tissues (liver, thyroid) or plasma [2]: selective accumulation
Compound: O=C(Nc1ccc(S(=O)(=O)N2CCCC2)cc1)c1ccc(Br)c(I)c1 [remodilin 50, 4-Bromo-3-iodo-N-(4-(pyrrolidin-1-ylsulfonyl)phenyl)benzamide]
